In patent US4342780A, “Method of depleting endogenous monoamines” (Merrell-Toraude et Cie, priority 1981, dated 1982):

Target: T1, AADC (Sus scrofa, UniProt P80041)
T1 sequence (P80041 1-486): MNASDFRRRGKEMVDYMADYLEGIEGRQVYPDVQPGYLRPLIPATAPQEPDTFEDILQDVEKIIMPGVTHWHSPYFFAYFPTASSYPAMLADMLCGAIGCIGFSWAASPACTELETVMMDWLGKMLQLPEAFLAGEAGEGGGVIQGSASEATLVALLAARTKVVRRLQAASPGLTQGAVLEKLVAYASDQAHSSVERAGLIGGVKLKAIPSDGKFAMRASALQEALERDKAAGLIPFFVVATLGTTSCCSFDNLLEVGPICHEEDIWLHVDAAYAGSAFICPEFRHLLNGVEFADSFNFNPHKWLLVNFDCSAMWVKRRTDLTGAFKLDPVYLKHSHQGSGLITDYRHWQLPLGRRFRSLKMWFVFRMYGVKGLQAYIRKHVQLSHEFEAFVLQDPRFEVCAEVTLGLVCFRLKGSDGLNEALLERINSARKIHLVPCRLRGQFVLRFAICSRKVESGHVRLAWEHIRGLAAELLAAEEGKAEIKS
Assay: In vitro AADC inhibition: time of 90% inactivation (14CO2 trapping, DL-[1-14C]-dopa substrate)
Assay type: biochemical, hog
Design: key to RATING: ++++: The relative activities of the compounds are rated by the given number of "plus" signs; +++: The relative activities of the compounds are rated by the given number of "plus" signs; 0-+: The relative activities of the compounds are rated by the given number of "plus" signs
Conditions: CONC. 10 μM
Method: AADC can be purified from hog kidney by the general method of J. Christenson et al. Archs. Biochem. Biophys., 141, 356 (1970) and G. Lancaster et al., Can. J. Biochem., 50, 791 (1972), and the specific activity of the enzyme is determined by the ^14 CO2 trapping method using DL-[1-^14 C]-dopa as the substrate (see Christenson et al.). One unit of activity is defined as the total amount of enzyme which produces 1 n mol of CO2 per minute, with DL-[1-^14 C]-dopa as substrate.
To 100 μl of 50 mM-phosphate buffer pH 7.4 containing 100 mM-mercapto-ethanol are added 5 μl of an aqueous solution containing the test compound at the desired concentration and 50 μl of an aqueous solution containing 2 units of AADC. The mixture is incubated at 37° C. and 20 μl aliquots are removed at various times. The AADC activity remaining in each aliquot is measured by the CO2 trapping method of Christenson.
The relative activities of the compounds are rated by the given number of "plus" signs.

NC(CF)(Cc1ccc(O)c(O)c1)C(=O)O (centres unmarked) [3,4-diOH-phenyl, 2-Amino-2-fluoromethyl-3-(3,4-dihydroxyphenyl)propionic acid]
TIME OF 90% INACTIVATION (pH 7.4, 37° C.): 1 to 2 min | RATING (relative activity): ++++
